Measured values from patent publication US20100292255A1, “Therapeutic Compounds and Their Use in Treating Diseases and Disorders” (Myriad Pharmaceuticals, Inc., priority 2007, published 2010).
pIC50: −log10 of the molar value.

Tested on: T1, purified human Hsp90
T1 construct: purified human Hsp90 (Stressgen, SPP-770)
Test: Hsp90 binding assay: displacement of BODIPY-labeled geldanamycin measured by fluorescence polarization
Conditions: BODIPY-GM 10 nM, Hsp90 30 nM, overnight at room temperature; for GM displacement from purified Hsp90 measured by FP Inhibition by 5 μM compd. (%): 5 μM compound; for pIC50: read-out: GM displacement from purified Hsp90 measured by FP IC 50
How it was run: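 Purified human Hsp90 at 30 nM and 10 nM BODIPY-GM tracer were incubated overnight at room temperature with compound in 2% DMSO. The buffer was 20 mM HEPES-KOH pH 7.3, 50 mM KCl, 5 mM MgCl2, 20 mM Na2MoO4, 2 mM DTT. Background-subtracted mP values read at 485/530 nm were normalized to DMSO wells to give % inhibition.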

SMILES | GM displacement from purified Hsp90 measured by FP Inhibition by 5 μM compd. (%) | pIC50
CCN(CC)C(=O)CN1CCC(CCn2cnc(N)c3nc(Sc4cc5c(cc4Br)OCCO5)nc2-3)CC1 [compound 28, 2-[4-(2-{6-Amino-8-[(7-bromo-2,3-dihydro-1,4-benzodioxin-6-yl)thio]-3H-purin-3-yl}ethyl)piperidin-1-yl]-N,N-diethylacetamide] | 40.0% | 
Nc1ncnc2c1nc(Sc1cc3c(cc1Br)OCO3)n2CCn1c(=O)n2n(c1=O)CC=CC2 [compound 29, 2-(2-{6-Amino-8-[(6-bromo-1,3-benzodioxol-5-yl)thio]-9H-purin-9-yl}ethyl)-5,8-dihydro-1H-[1,2,4]triazolo[1,2-a]pyridazine-1,3(2H)-dione] |  | 5.74
Nc1ncn(CCn2c(=O)n3n(c2=O)CC=CC3)c2nc(Sc3cc4c(cc3Br)OCO4)nc1-2 [compound 30, 2-(2-{6-Amino-8-[(6-bromo-1,3-benzodioxol-5-yl)thio]-3H-purin-3-yl}ethyl)-5,8-dihydro-1H-[1,2,4]triazolo[1,2-a]pyridazine-1,3(2H)-dione] | 23.0% | 
Nc1ncnc2c1nc(Sc1cc3c(cc1Br)OCO3)n2CCCn1c(=O)n2n(c1=O)CC=CC2 [compound 31] |  | 6.05
N#CCCN1CCC(CCn2cnc(N)c3nc(Sc4cc5c(cc4Br)OCO5)nc2-3)CC1 [compound 32] | 9.0% | 
COCC(=O)N1CCC(CCn2c(Sc3cc4c(cc3C#N)OCO4)nc3c(N)ncnc32)CC1 [compound 33, 6-[(6-Amino-9-{2-[1-(methoxyacetyl)piperidin-4-yl]ethyl}-9H-purin-8-yl)thio]-1,3-benzodioxole-5-carbonitrile] |  | 6.52
COCC(=O)N1CCC(CCn2cnc(N)c3nc(Sc4cc5c(cc4C#N)OCO5)nc2-3)CC1 [compound 34, 6-[(6-Amino-3-{2-[1-(methoxyacetyl)piperidin-4-yl]ethyl}-3H-purin-8-yl)thio]-1,3-benzodioxole-5-carbonitrile] | 88.0% | 
CO[C@H](C)C(=O)N1CCC(CCn2c(Sc3cc4c(cc3C#N)OCO4)nc3c(N)ncnc32)CC1 [compound 35, 6-{[6-Amino-9-(2-{1-[(2R)-2-methoxypropanoyl]piperidin-4-yl}ethyl)-9H-purin-8-yl]thio}-1,3-benzodioxole-5-carbonitrile] |  | 6.30
CO[C@H](C)C(=O)N1CCC(CCn2cnc(N)c3nc(Sc4cc5c(cc4C#N)OCO5)nc2-3)CC1 [compound 36, 6-{[6-Amino-3-(2-{1-[(2R)-2-methoxypropanoyl]piperidin-4-yl}ethyl)-3H-purin-8-yl]thio}-1,3-benzodioxole-5-carbonitrile] | 35.0% | 
CO[C@@H](C)C(=O)N1CCC(CCn2c(Sc3cc4c(cc3C#N)OCO4)nc3c(N)ncnc32)CC1 [compound 37, 6-{[6-Amino-9-(2-{1-[(2S)-2-methoxypropanoyl]piperidin-4-yl}ethyl)-9H-purin-8-yl]thio}-1,3-benzodioxole-5-carbonitrile] |  | 6.26
CO[C@@H](C)C(=O)N1CCC(CCn2cnc(N)c3nc(Sc4cc5c(cc4C#N)OCO5)nc2-3)CC1 [compound 38, 6-{[6-Amino-3-(2-{1-[(2S)-2-methoxypropanoyl]piperidin-4-yl}ethyl)-3H-purin-8-yl]thio}-1,3-benzodioxole-5-carbonitrile] | 36.0% | 
N#Cc1cc2c(cc1Sc1nc3c(N)ncnc3n1CCC1CCN(C(=O)C3CC3(F)F)CC1)OCO2 (stereo not shown) [compound 39, 6-{[6-Amino-9-(2-{1-[(2,2-difluorocyclopropyl)carbonyl]piperidin-4-yl}ethyl)-9H-purin-8-yl]thio}-1,3-benzodioxole-5-carbonitrile] |  | 6.70
N#Cc1cc2c(cc1Sc1nc3c(N)ncn(CCC4CCN(C(=O)C5CC5(F)F)CC4)c-3n1)OCO2 (stereo not shown) [compound 40, 6-{[6-Amino-3-(2-{1-[(2,2-difluorocyclopropyl)carbonyl]piperidin-4-yl}ethyl)-3H-purin-8-yl]thio}-1,3-benzodioxole-5-carbonitrile] | 33.0% | 
